This is an account of results in ChEMBL document CHEMBL1159218, “Metabolites of the Palauan sponge Axinyssa aplysinoides” (J Nat Prod, 1995).

Experiment [1] has as its system Staphylococcus aureus. The experiment in a line: Antibacterial activity against Staphylococcus aureus at 25 ug/disk by disc-diffusion assay. In kind it is functional, organism-based.
Experiment [2] concerns Bacillus subtilis. Kind of experiment: Antibacterial activity against Bacillus subtilis at 10 ug/disk by disc-diffusion assay. In kind it is functional, organism-based. (A growth-free zone around the sample is the usual read-out of agar diffusion tests.)

Activity calls are given as the source filed them. The rule behind the calls is not given here.

For the compound `CC(C)[C@H]1CC[C@@H](C)C2=CC[C@](C)(NC=O)C[C@@H]21` (relative stereo), the result in experiment [1] and in experiment [2] was Active.
